Results from EP3643303A1, “COMPOUNDS FOR USE IN THE TREATMENT OR PREVENTION OF FIBROTIC DISEASES; PHARMACEUTICAL, COSMETIC COMPOSITIONS AND USES THEREOF” (InnovativeHealth Group SL, priority 2018, dated 2020).

Key:
[1] = tested on: human COL1A2 promoter; experiment: Col1A2 gene transcriptional activity (luciferase) in NIH-3T3-Col1A2-luc cells stimulated with TGFβ; assay type: cell-based, mouse; details: TGFβ 10 ng/ml, 24 h; Figure 3
Description: The effect of CBD isomers on collagen transcriptional regulation in NIH-3T3 cells stably expressing the Col1A2-luc plasmid, which encodes the gene promoter of the pro-alpha2 chain component of type I collagen fused to the luciferase gene, was studied. NIH-3T3-COL1A2-Luc fibroblast cells were generated by stable transfection of the COL-1A2-Luc plasmid, containing sequences from -353 to +58 bp of the human COL1A2 promoter fused to the luciferase reporter gene, and pPURO plasmid. Cells are cultivated at a density of 1 x 10^4 cells/ml for 24 h at 37°C. Then the cells were treated with the CBD isomers at several concentrations and TGFβ (10 ng/ml) for 24 h. Then, the cells are washed with PBS and lysed in 50 µl lysis buffer containing 25 mM Tris-phosphate (pH 7.8), 8 mM MgCl2, 1 mM DTT, 1% Triton X-100, and 7% glycerol during 15 min. Luciferase activity and protein concentration is measured in the cell lysates, to calculate the RLU/µg of protein and the results expressed as the percentage of induction considering the value obtained with TGFβ as 100% activation. The protein concentration in the cell extracts was measured by the Bradford method (BioRad).

[2] = tested on: Nrf2 pathway; experiment: Nrf2 activation (ARE-Luc luciferase) in HaCaT-ARE-Luc keratinocytes; assay type: cell-based; details: 6 h, increasing concentrations; Figure 7
Description: Nrf2 is a transcription factor which, upon activation in response to inflammatory or oxidative stress, activates a robust anti-inflammatory and cytoprotective transcription program. Therefore, Nrf2 activation may represent a novel approach for the treatment of scleroderma and other fibrotic diseases. Thus, the effect of CBD isomers on the activation of the Nrf2 pathway in the keratinocyte cell line HaCaT-ARE-Luc, containing the Nqo1 Antioxidant Response Element (ARE)-Luc reporter plasmid stably transfected, was explored. ARE is activated by all members of the CNC family of factors (Nrf1, Nrf2, Nrf3 and p45 NF-E2). The cells are cultivated in 96-well plates at the concentration of 2x10^4 cells/well in a CO2 incubator at 37°C. For induction of Nrf2 activation the cells were treated with increasing concentrations of the CBD isomers for 6 h. As a positive control the cells were treated with 0,01 mM of Tert-butyl-hydroperoxide (TBHP) for 6 h. […] Luciferase activity was measured using TriStar^2 Berthold/LB942 multimode reader (Berthold Technologies) following the instructions of the luciferase assay kit (Promega, Madison, WI, USA). The background obtained with the lysis buffer was subtracted in each experimental value, and the specific transactivation expressed as fold induction over basal levels (untreated cells).

[3] = biological target: TRPV-1 (Homo sapiens, UniProt Q8NER1); experiment: Capsaicin-induced cytotoxicity (YOYO-1, Incucyte) in HEK-293T-TRPV1 cells; assay type: cell-based; parameters: expressed in transfected cells; host or cells: HEK-293T; details: Capsaicin 1 µM for 3 h, Figure 2B
Chain of TRPV-1 (Q8NER1 whole entry): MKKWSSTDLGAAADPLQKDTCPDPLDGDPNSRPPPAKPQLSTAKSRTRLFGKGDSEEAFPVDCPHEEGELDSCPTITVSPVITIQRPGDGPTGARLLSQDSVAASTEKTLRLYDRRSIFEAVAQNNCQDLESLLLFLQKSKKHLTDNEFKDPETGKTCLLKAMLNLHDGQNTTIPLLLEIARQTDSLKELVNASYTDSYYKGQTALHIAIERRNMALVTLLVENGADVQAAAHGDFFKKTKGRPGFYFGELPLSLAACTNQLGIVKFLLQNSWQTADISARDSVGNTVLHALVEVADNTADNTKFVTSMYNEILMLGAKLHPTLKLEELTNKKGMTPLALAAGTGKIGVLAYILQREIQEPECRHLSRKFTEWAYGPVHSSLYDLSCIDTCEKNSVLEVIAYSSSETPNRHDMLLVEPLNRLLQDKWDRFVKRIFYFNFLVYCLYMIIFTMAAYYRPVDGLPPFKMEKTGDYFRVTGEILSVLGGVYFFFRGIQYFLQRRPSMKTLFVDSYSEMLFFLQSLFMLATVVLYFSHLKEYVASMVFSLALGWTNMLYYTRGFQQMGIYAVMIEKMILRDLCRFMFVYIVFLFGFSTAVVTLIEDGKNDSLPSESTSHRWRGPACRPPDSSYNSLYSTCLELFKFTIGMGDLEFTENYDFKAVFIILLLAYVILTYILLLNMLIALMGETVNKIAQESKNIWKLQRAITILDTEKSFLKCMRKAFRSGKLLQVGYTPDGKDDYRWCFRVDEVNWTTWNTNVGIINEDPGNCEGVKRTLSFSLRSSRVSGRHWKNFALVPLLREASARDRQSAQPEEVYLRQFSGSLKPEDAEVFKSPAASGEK
Protocol: Capsaicin-induced cytotoxicity as a model of TRPV-1 agonistic assay was also investigated in HEK-293T-TRPV1 cells. The cells (2x10^4/well) were cultured in triplicate in 96-well microtiter plates in 200 µL of complete medium and incubated with (-)CBD or (+)CBD and then stimulated with the agonist Capsaicin (1 µM) for 3 h. Capzasepine (10 µM) was used as the positive control of TRPV-1 antagonism. Then, TRPV-1 induced cytotoxicity was measured by fluorescence using the die YOYO-1 (Life Technologies). YOYO-1 was diluted in cell culture medium and added to a final concentration of 0.1 µM to both experimental and control wells. YOYO-1 is a cell impermeant cyanine dimer nucleic acid stain that can only enter cells with a compromised plasma membrane and fluorescently stain the nuclear DNA. By adding YOYO-1 to damaged cells an increase in YOYO-1 fluorescence is detected. Treated cells are placed in an Incucyte FLR imaging system, and the YOYO-1 fluorescence is measured after 3 h. […] Object counting analysis is performed using the Incucyte FLR software to calculate the total number of YOYO-1 fluorescence positive cells and total DNA containing objects (end point). The cytotoxicity index is calculated by dividing the number of YOYO-1 fluorescence positive objects by the total number of DNA containing objects for each treatment group.

[4] = biological target: T1, human CB1 (Homo sapiens, UniProt P21554); experiment: CB1 antagonism assay (CRE-Luc reporter) in HEK-293T-CB1 cells stimulated with WIN-55,212-2; assay type: cell-based; details: 15 min preincubation, then WIN-55,212-2 for 6 h; CRE-Luc luciferase; Figure 1
T1 construct: HEK-293T-CB1 (stably transfected with CB1 cDNA); expressed in transfected cells; host or cells: HEK-293T
T1 sequence (P21554 whole entry): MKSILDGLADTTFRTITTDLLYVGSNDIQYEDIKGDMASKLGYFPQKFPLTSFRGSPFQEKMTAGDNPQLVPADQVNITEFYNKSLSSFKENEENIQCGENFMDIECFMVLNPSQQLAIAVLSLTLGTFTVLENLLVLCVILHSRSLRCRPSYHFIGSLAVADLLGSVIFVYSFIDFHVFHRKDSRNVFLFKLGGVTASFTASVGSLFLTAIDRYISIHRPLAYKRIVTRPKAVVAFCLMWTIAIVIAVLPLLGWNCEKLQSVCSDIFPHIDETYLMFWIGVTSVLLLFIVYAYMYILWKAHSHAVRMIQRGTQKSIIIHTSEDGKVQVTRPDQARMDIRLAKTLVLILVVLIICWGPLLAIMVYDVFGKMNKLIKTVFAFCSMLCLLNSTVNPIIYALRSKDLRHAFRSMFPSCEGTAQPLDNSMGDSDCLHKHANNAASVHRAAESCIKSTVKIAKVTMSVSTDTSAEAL
Protocol: To investigate the biological activities of the CBD enantiomers on CB1 and TRPV1 receptors were performed functional assays in both HEK-293T-CB1 and HEK-293T-TRPV1 cells, which overexpress human CB1 and TRPV-1 receptors respectively. HEK-293T-CB1 (stably transfected with CB1 cDNA) were maintained in supplemented DMEM medium containing 10% FBS and 1% antibiotics penicillin/streptomycin (DMEM complete medium) at 37°C in a humidified atmosphere of 5% CO2. The cells were incubated in 24-well plates (1x10^5 cell/ml) and transiently transfected with 0,1 µg/ml of the plasmid CRE-Luc that contains six consensus cAMP responsive elements (CRE) linked to firefly luciferase. Transient transfections were performed with Rotifect (Carl Roth GmbH, Karlsruhe, Germany) according to the manufacturer's instructions and harvested 24 h after transfection. For CB1 antagonistic activity the transfected cells were incubated with increasing concentrations of the CBD enantiomers for 15 min and then stimulated with WIN-55, 212-2 (CB1 agonist), during 6 h and then luciferase activity measured in the cell lysates. […]

SMILES	collagen promoter transcriptional activity [1]	activation of the Nrf2 pathway [2]	capsaicin-induced cytotoxicity (cytotoxicity index) [3]	CB1 antagonistic activity [4]
C=C(C)[C@H]1CCC(C)=C[C@@H]1c1c(O)cc(CCCCC)cc1O [(+)CBD, (+)Cannabidiol]	significantly reduced	able to activate the Nrf2 pathway in keratinocytes and in a concentration-dependent manner	prevent capsaicin-induced calcium mobilization	clear CB1 antagonistic activity
C=C(C)[C@@H]1CCC(C)=C[C@H]1c1c(O)cc(CCCCC)cc1O [(-)CBD, 2-[(1R,6R)-3-methyl-6-prop-1-en-2-ylcyclohex-2-en-1-yl]-5-pentylbenzene-1,3-diol]	significantly reduced	able to activate the Nrf2 pathway in keratinocytes and in a concentration-dependent manner	prevent capsaicin-induced calcium mobilization	clear CB1 antagonistic activity
